Laboratory results from ChEMBL document CHEMBL3108664, “Macrocyclic drugs and clinical candidates: what can medicinal chemists learn from their properties?” (J Med Chem, 2014).
Blank lines part the entries; values can stand above or below the molecule they belong to.

Key:
[1] = Oral bioavailability in human; assay type: ADME, organism-based; settings: in vivo
[2] = Half life in human at 25 mg, po administered through fat rich diet; assay type: ADME, organism-based; settings: in vivo
[3] = Oral bioavailability in dog at 1 mg/kg; assay type: ADME, organism-based, Canis lupus familiaris; settings: in vivo
[4] = Oral bioavailability in rat at 5 mg/kg; assay type: ADME, organism-based; settings: in vivo
[5] = Oral bioavailability in mouse administered as bid; assay type: ADME, organism-based; settings: in vivo
[6] = Apparent permeability across apical to basolateral side of human Caco2 cells at 5 uM after 120 mins by LC/MS/MS analysis; assay type: ADME, cell-based; settings: Caco-2
Homo sapiens = test: Oral bioavailability in human at 3 to 15 mg/day; assay type: ADME, organism-based; settings: in vivo
[7] = Oral bioavailability in cancer patient at 75 mg, qd administered 5 days for every 2 weeks; assay type: ADME, organism-based; settings: human, in vivo

Molecule: C=C[C@@H]1C[C@]1(NC(=O)[C@@H]1C[C@@H]2CN1C(=O)[C@H](C(C)(C)C)NC(=O)O[C@@H]1C[C@H]1CCCCCc1nc3ccc(OC)cc3nc1O2)C(=O)NS(=O)(=O)C1CC1 [GRAZOPREVIR ANHYDROUS]
bioavailability [3]: 13%
bioavailability [4]: 1%

Molecule: COc1cc2ncnc3c2cc1OCCCCCN(C)Cc1ccc(Br)cc1N3 [JNJ-26483327]
bioavailability [5]: 80%

Molecule: CN1C/C=C/CCOc2cccc(c2)-c2ccnc(n2)Nc2cccc(c2)C1 [ZOTIRACICLIB]
Papp A→B at 2 h, 5 µM [6]: 28 ×10⁻⁶ cm/s

Molecule: CO[C@H]1/C=C/O[C@@]2(C)Oc3c(C)c(O)c4c(O)c(c(/C=N/N5CCN(C)CC5)c(O)c4c3C2=O)NC(=O)/C(C)=C\C=C\[C@H](C)[C@H](O)[C@@H](C)[C@@H](O)[C@@H](C)[C@H](OC(C)=O)[C@@H]1C [RIFAMPIN]
bioavailability [1]: 50%

Molecule: CO[C@H]1C[C@@H]2CC[C@@H](C)[C@@](O)(O2)C(=O)C(=O)N2CCCC[C@H]2C(=O)O[C@H]([C@H](C)C[C@@H]2CC[C@@H](OC(=O)C(C)(CO)CO)[C@H](OC)C2)CC(=O)[C@H](C)/C=C(\C)[C@@H](O)[C@@H](OC)C(=O)[C@H](C)C[C@H](C)/C=C/C=C/C=C/1C [TEMSIROLIMUS]
bioavailability [7]: 1.5%

Continued, values first:

bioavailability [1]: 15%
Molecule: C=CC[C@@H]1/C=C(\C)C[C@H](C)C[C@H](OC)[C@H]2O[C@@](O)(C(=O)C(=O)N3CCCC[C@H]3C(=O)O[C@H](/C(C)=C/[C@@H]3CC[C@@H](O)[C@H](OC)C3)[C@H](C)[C@@H](O)CC1=O)[C@H](C)C[C@@H]2OC [TACROLIMUS ANHYDROUS]

half-life [2]: 100 h
Molecule: CO[C@H]1/C=C/O[C@@]2(C)Oc3c(C)c(O)c4c(=O)c(c5oc6cc(N7CCN(CC(C)C)CC7)cc(O)c6nc-5c4c3C2=O)NC(=O)/C(C)=C\C=C\[C@H](C)[C@H](O)[C@@H](C)[C@@H](O)[C@@H](C)[C@H](OC(C)=O)[C@@H]1C [RIFALAZIL]

bioavailability [1]: 20%
Molecule: CO[C@H]1C[C@@H]2CC[C@@H](C)[C@@](O)(O2)C(=O)C(=O)N2CCCC[C@H]2C(=O)O[C@H]([C@H](C)C[C@@H]2CC[C@@H](OCCO)[C@H](OC)C2)CC(=O)[C@H](C)/C=C(\C)[C@@H](O)[C@@H](OC)C(=O)[C@H](C)C[C@H](C)/C=C/C=C/C=C/1C [EVEROLIMUS]

F (Homo sapiens): 60%
Molecule: IVERMECTIN

bioavailability [1]: 70%
Molecule: CO[C@H]1/C=C/O[C@@]2(C)Oc3c(C)c(O)c4c(O)c(c(/C=N/N5CCN(C6CCCC6)CC5)c(O)c4c3C2=O)NC(=O)/C(C)=C\C=C\[C@H](C)[C@H](O)[C@@H](C)[C@@H](O)[C@@H](C)[C@H](OC(C)=O)[C@@H]1C [RIFAPENTINE]
